US6297281A, “Association of no syntase inhibitors with trappers of oxygen reactive forms” (priority 1996, dated 2001)
Like-named read-outs stand apart in the source and are kept apart here.

Experiments:
[1] = biological target: constitutive NO synthase (Rattus norvegicus, UniProt P29476); experiment: biochemical
Procedure: 1) In vitro effect of constitutive NO synthase on the rat cerebellum
The test consists in measuring the conversion, by NO synthase, of L-arginine to L-citrulline. Samples of cerebella of Sprague-Dawley rats (300 g--Charles River) are taken rapidly, dissected at 4° C. and homogenised in a volume of extraction buffer (HEPES 50 mM, EDTA 1 mM, pH 7.4, pepstatin A […], leupeptin […]) centrifuged at 21000 g for 15 min at 4° C. The assay is carried out in glass test tubes in which are distributed […] of incubation buffer containing 100 mM of HEPES, pH 7.4, 2 mM of EDTA, 2.5 mM of CaCl2, 2 mM of dithiothreitol,2 mM of reduced NADPH and 10 µg/ml of calmodulin. […] The reaction is initiated by adding 50 μl of homogenised product, the final volume being 200 μl (the 25 μl shortfall being either water or the product being tested). After 15 min, the reaction is stopped with 2 ml of stop buffer (20 mM of HEPES, pH 5.5, 2 mM of EDTA). After passing samples over a column of 1 ml of DOWEX resin, the radioactivity is quantified by a liquid scintillation spectrometer.
The results are expressed in terms of the IC50 value and are summarised in the table of paragraph 2 (first column of results entitled "constitutive NO synthase, formation of citrulline").

[2] = biological target: T1, inducible NO synthase (Mus musculus, UniProt P29477); experiment: In vitro effect on inducible NO synthase of murine macrophages J774A1 (formation of citrulline); format: biochemical; conditions: NO synthase isolated from LPS/IFN-γ activated J774A1 macrophages, pH 7.4
T1 construct: The NO synthase is isolated with an extraction buffer; endogenous in cells; sonicated, 100,000 g ultracentrifuged extract
Procedure: 2) In vitro effect on inducible NO synthase of murine macrophages J774A1
Murine macrophages J774A1 produce a large quantity of nitrogen monoxide after activation by lipopolysaccharides (LPS) and interferon-γ(IFN-γ). The cells are cultivated in DMEM medium (Dulbecco's Modified Eagle Medium) enriched with 10% foetal calf serum at 37° C. under an atmosphere of 5% CO2 after activation by LPS and IFN-γ. They are seeded in a quantity of 5000 cells/cm^2 in 150 cm^2 bottles. The incubations are carried out in the presence of LPS (1g/ml) and murine IFN-γ (50 U/ml) in DMEM enriched with 10% foetal calf serum. The NO synthase is isolated with an extraction buffer (HEPES 50 mM, pH 7.4, dithiothreitol 0.5 mM, pepstatin A 1 mg/ml, leupeptin 1 mg/ml, soya trypsin inhibitor 1 mg/ml, antipain 1 mg/ml, and PMSF 10 mg/ml). After sonication in the extraction buffer at 4° C., the homogenised products are ultracentrifuged (100,000 g with 3,5-di-tert.butyl-4-hydroxybenzoic acid 4° C. for 1 h). The protocol is then identical to that of cerebellum NO synthase except for the composition of the incubation buffer (100 mM of HEPES, pH 7.4, 1 mM dithiothreitol, 2.5 mM of CaCl2, 10 M of tetrahydrobiopterin, FAD 10 μM, BSA 1 mg/ml, 2 mM of reduced NADPH).

[3] = biological target: T1, inducible NO synthase; experiment: In vitro effect on the production of nitrites by murine macrophages J774A1; format: cell-based; conditions: J774A1 cells, LPS 1 μg/ml + IFN-γ 50 U/ml, 48 hours; read-out: IC50 Inducible NO synthase (formation of nitrites)
Procedure: 3) In vitro effect on the production of nitrites by murine macrophages J774A1
This test is used to measure the inhibitory activity of the products on inducible NO synthase of culture cells. The cells are cultivated in DMEM medium (Dulbecco's Modified Eagle Medium) enriched with 10% foetal calf serum at 37° C. under an atmosphere of 5% CO2. For the experiments, they are distributed in 96-well plates (50,000 cells per well) and incubated in DMEM without phenol red containing 10% foetal calf serum with LPS (1 μg/ml) and murine IFN-γ(50 U/ml) in the presence or absence of the products to be tested. After 48 hours, the concentration of nitrites in the culture media, degradation products of nitrogen monoxide, is measured by a colorimetric method according to Green et al. (Analytical Biochemistry, 126, 131-138 (1982)). The results are expressed in terms of the IC50 value and are summarised in the table of paragraph 2 (third column of results entitled "inducible NO synthase, formation of nitrites").

[4] = test system: production of superoxide anions by J774A1 cells; experiment: In vitro effect on the formation of superoxide anions (PMA-activated J774A1 cells, luminol chemiluminescence); format: cell-based, murine
Procedure: 4) In vitro effect on the formation of superoxide anions
The activation of the macrophage cells J774A1 by phorbol myristate acetate (PMA) leads to the production of superoxide anions in a few minutes. These superoxide anions are able to oxidise a luminescent substrate, luminol. This reaction generates photons, the production of which is measured by means of a chemiluminometer. The effects of the products on the production of superoxide anions are tested by incubating the J774A1 cells at 37° C. in the presence of PMA, products to be tested, and luminol. The results are expressed in terms of the IC50 value.

[5] = test system: focal cerebral ischaemia; experiment: Effect on focal cerebral ischaemia with reperfusion (transient occlusion of the middle cerebral artery); format: in vivo, rat (male Sprague-Dawley)
Procedure: Their activity was evaluated on a model of focal cerebral ischaemia in the rat. […] The effects of the combination were compared with those produced by a treatment with the inhibitor of nitrogen monoxide or the trap of reactive forms of oxygen alone.
5) Effect on focal cerebral ischaemia with reperfusion
The experiments are carried out on male Sprague-Dawley rats (Charles River) weighing between 330 and 360 g. After anaesthesia with isoflurane, the rats undergo transient occlusion of the middle cerebral artery described by Memezawa et al. (Exp. Brain Res. 89, 67-78, 1992). A wire is introduced into the anterior cerebral artery bringing about an occlusion of the middle cerebral artery. Two hours later, the wire is withdrawn so as to permit recirculation of the blood to the Willis polygon. The temperature of the animals is monitored and controlled for 6 hours after occlusion. Forty eight hours after occlusion, the rats are anlesthetised with isoflurane and decapitated. Samples of brain are taken rapidly and immersed for 2 minutes in isopentane at -15° C. Six sections 2 mm thick are obtained and placed in a solution containing 2% 2,3,5-triphenyltetrazolium chloride (TCC) for 20 min and then fixed with formalin. The infarcted zone appears white and the healthy zone red. The infarcted surface area is measured at the site of the (sections by means of an image analyser. The volume of the infarct is calculated by integrating these various surface areas in the knowledge that they are 2 mm apart. The products are administered intraperitoneally. The first treatment is carried out 4 hours after occlusion, that is, 2 hours after the w ire was withdrawn, then 24 hours afterwards.
Compound of example 1: 4 groups of animals are created:
Group 1: treated with physiol ogical serum
Group 2: treated with A (30 mg/kg)
Group 3: treated with B (20 mg/kg)
Group 4: treated with AB (50 mg/kg)
Compound of example 2: 4 groups of animals are created:
Group 1: treated with physiological serum
Group 2: treated with A (10 mg/kg)
Group 4: treated with AB (A: 10 mg/kg and B: 20 mg/kg)
Compound of example 3: 4 groups of animals are created:
Group 2: treated with A (0.03 mg/kg i.v.)
Group 3: treated with B (20 mg/kg i.p.)
Group 4: treated with AB (A: 0.03 mg/kg i.v. and B: 20 mg/kg i.p.)

[6] = 3,5-di-tert-butyl-4-hydroxybenzoic acid 20 mg/kg, aminoguanidine, their combination
[7] = Example 1, i.p. 4 h and 24 h after, A 30 mg/kg (NS), B 20 mg/kg (NS), AB 50 mg/kg (** very significant), control 270.4 ± 30.05
[8] = Example 1, i.p., A 30 mg/kg, B 20 mg/kg, AB 50 mg/kg
[9] = Example 2, i.p., A 10 mg/kg (NS), B 20 mg/kg (NS), AB: A 10 mg/kg and B 20 mg/kg (** very significant), control 270.4 ± 30.05
[10] = Example 2, i.p., A 10 mg/kg, B 20 mg/kg, AB: A 10 mg/kg and B 20 mg/kg
[11] = Example 3, A 0.03 mg/kg i.v. (NS), B 20 mg/kg i.p. (NS), AB: A 0.03 mg/kg i.v. and B 20 mg/kg i.p. (** very significant), control 237.68 ± 31.51
[12] = Example 3, A 0.03 mg/kg i.v., B 20 mg/kg i.p., AB: A 0.03 mg/kg i.v. and B 20 mg/kg i.p.

CC(C)(C)c1cc(C(=O)O)cc(C(C)(C)C)c1O.N=C(N)NN [Example 1 AB]
IC50 ([1]; read-out: IC50 Constitutive NO synthase (formation of citrulline), rat cerebellum homogenate, pH 7.4, 15 min): > 300 µM
IC50 [2]: 57 µM
IC50 [3]: 26 µM
IC50 ([4]; 37° C.): 30 µM
protection of the animals from ischaemia (in words) [5, 6]: protects the animals from ischaemia in a highly significant manner
Volume of infarct [5, 7]: 89.6 ± 22.42
% Protection [5, 8]: 63.2%

O=[N+]([O-])c1cccc2cn[nH]c12 [Example 2 A, 7-nitroindazole]
protection of the animals from ischaemia (in words) ([5]; 7-nitroindazole 10 mg/kg, combined with 3,5-di-tert-butyl-4-hydroxybenzoic acid): not significantly active
Volume of infarct [5, 9]: 238.9 ± 27.08
% Protection [5, 10]: 11.7%

N=C(NCCC[C@H](N)C(=O)O)N[N+](=O)[O-] [Example 3 A, NGnitroarginine]
Volume of infarct [5, 11]: 238.14 ± 35.94
% Protection [5, 12]: 0%
protection of the animals from ischaemia (in words) ([5]; nitroarginine 0.03 mg/kg, combined with i.p. 3,5-di-tert-butyl-4-hydroxybenzoic acid): not significantly active

N=C(N)NN [Example 1 A, aminoguanidine]
IC50 [1]: > 300 µM
IC50 [2]: 29 µM
IC50 [3]: 22 µM
IC50 formation of superoxide anions ([4]; 37° C.): inactive
protection of the animals from ischaemia (in words) [5, 6]: low activity
Volume of infarct [5, 7]: 233 ± 30.15
% Protection [5, 8]: 13.8%

CC(C)(C)c1cc(C(=O)O)cc(C(C)(C)C)c1O [Example 1 B, 3,5-di-tert-butyl-4-hydroxybenzoic acid]
IC50 ([4]; Mus musculus, J774.A1, 37° C.): 30 µM
protection of the animals from ischaemia (in words) [5, 6]: inactive
Volume of infarct [5, 7]: 250.9 ± 37.86
% Protection [5, 8]: 7.1%
Volume of infarct [5, 9]: 250.9 ± 37.86
% Protection [5, 10]: 7.1%
Volume of infarct [5, 11]: 222.9 ± 7.34
% Protection [5, 12]: 6.2%
